Results: US20200079786A1, “ANALOGS OF […] AS SOLUBLE EPOXIDE HYDROLASE INHIBITORS” (UNIVERSITAT DE BARCELONA, priority 2015, published 2020)

Tests used:
sEH in AR42j cells = molecular target: T1, sEH in AR42j cells (Rattus norvegicus, UniProt P80299); assay: In vitro determination of sEH inhibition activity in AR42j cells (cell-based fluorescent assay); conditions: AR-42J, read-out: % Inhn. ± SE (100 μM), sEH inhibition activity in cell culture
T1 sequence (P80299 1-554): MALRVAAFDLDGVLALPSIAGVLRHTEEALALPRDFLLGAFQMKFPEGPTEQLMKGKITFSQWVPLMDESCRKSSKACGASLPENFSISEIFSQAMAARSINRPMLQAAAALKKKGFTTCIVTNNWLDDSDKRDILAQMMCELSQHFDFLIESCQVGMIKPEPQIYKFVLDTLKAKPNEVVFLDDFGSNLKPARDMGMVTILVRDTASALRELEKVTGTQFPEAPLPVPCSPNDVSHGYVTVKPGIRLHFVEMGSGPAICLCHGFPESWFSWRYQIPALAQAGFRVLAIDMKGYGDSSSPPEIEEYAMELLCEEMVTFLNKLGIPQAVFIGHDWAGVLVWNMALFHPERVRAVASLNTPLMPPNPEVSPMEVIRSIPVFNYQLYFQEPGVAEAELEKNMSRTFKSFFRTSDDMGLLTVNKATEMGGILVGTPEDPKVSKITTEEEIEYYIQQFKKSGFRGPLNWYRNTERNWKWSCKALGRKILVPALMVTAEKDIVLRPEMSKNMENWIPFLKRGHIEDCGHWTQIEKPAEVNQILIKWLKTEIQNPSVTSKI
Experimental: Solutions Preparation: • Assay buffer 1×: add 10 mL of the CBA-Buffer (10×) to 90 mL of distilled water. • Lysis Buffer: add 50 μL of the CBA Digitonin Solution to 10 mL of Buffer Assay 1×. • Substrate Solution: dilute 10 μL of CBA sEH Substrate with 10 mL of Assay Buffer 1×. • Standards: preparation of 7 concentrations of CBA 6-methoxy-2-naphtalaldehyde from 0 until 2 M with Assay Buffer 1×. • sEH Positive Control: Prepare another stock A (1 μg/ml: 1 μL CBA sEH Positive Control+1 mL Assay Buffer 1×). From the already prepared stock A, prepare 250 μL of sEH (10 ng/mL): 2.5 μL sEH stock A+250 μL Assay Buffer 1×). • sEH Inhibitor AUDA: dilute 10 μL CBA sEH Inhibitor with 500 ml Assay Buffer 1×. • Inhibitors dissolved in DMSO at appropriated concentrations.
Seed cells in a 96-well plate at a density of (2×10^4)-(5×10^4) cells/well in 100 μL of culture medium with or without compounds to be tested. Incubation of the cells in a CO2 incubator at 37° C. for 48 hours. Aspirate the culture medium and add 200 μL of Assay Buffer 1× to each well. Centrifuge the plate at 800 rmp for 5 minutes. Aspirate the supernatant and add 100 μL of Lysis Buffer to each well. Incubate with gentle shaking on an orbital shaker for 30 minutes at room temperature. Centrifuge the plate at 3000 rpm for 20 minutes at 4° C. Transfer 90 μL of the supernatants to the 96-Well Solid Plate (black). Add 10 μL Assay Buffer 1× or 10 μL of the AUDA solution to appropriate wells. For positive control wells, add 100 μL of the 10 ng/mL sEH Positive Control to two wells. Add 200 μL of 6-methoxy-2-Naphthaldehyde Standards to corresponding wells of the black plate. Add 100 μL of the sEH Substrate Solution to each well, except the standards. Incubate the plate at 37° C. for 30 minutes. […] The intensity of fluorescence was used to analyze and calculate inhibition percentages, shown in the Table as average of minimum three independent replicates.

[1] = Determination of water solubility (nephelometry); type: physicochemical; conditions: aqueous with cosolvent or surfactant or cyclodextrin, kinetic from dmso stock; 5% DMSO: 95% PBS buffer, 37° C., read after 2 and 4 h; read-out: S (solubility)
CYP2C19 = CYP2C19 (Homo sapiens, UniProt P33261); assay: Inhibition of human cytochrome P450 CYP2C19; type: in vitro ADME; conditions: human cytochrome P450 enzyme
Sequence of CYP2C19 (P33261 whole entry): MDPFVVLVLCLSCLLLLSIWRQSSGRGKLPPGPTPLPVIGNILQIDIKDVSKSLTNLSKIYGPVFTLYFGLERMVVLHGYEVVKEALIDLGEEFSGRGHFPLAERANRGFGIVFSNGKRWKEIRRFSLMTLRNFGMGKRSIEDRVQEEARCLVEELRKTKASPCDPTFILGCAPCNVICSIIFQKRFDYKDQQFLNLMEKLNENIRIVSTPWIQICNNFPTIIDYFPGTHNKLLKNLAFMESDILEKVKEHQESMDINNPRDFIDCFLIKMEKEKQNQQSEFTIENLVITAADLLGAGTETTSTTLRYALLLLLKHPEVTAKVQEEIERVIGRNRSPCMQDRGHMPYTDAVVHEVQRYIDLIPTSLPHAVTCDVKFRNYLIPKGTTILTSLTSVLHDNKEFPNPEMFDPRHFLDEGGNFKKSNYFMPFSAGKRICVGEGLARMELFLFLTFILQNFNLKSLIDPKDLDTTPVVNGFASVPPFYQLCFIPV
From the text: (§1) The epoxidation of arachidonic acid (AA) by selected cytochrome P450 epoxygenases generates epoxyeicosatrienoic acids (EETs). These EETs show anti-inflammatory, antihypertensive, analgesic, angiogenic, and antiatherosclerotic effects in rodents and humans. sEH converts EETs to their corresponding dihydroxyeicosatrienoic acids (DHETs), whereby the biological effects of EETs are diminished, eliminated, or altered. Among the P450 enzymes, it is known that CYP2C19 and CYP1A2 have the highest formation rate of EETs from AA (cf. A. A. El-Sherbeni et al. “Repurposing resveratrol and fluconazole to modulate human cytrochrome P450-mediated arachidonic acid metabolites”, Molecular Pharmaceutics 2016, vol. 13, pp. 1278-1288). For this reason, a highly desirable aspect of any new sEH inhibitor is selectivity in front of CYP2C19 and CYP1A2.

CYP1A2 = molecular target: T2, CYP1A2 (Homo sapiens, UniProt P05177); assay: Inhibition of human cytochrome P450 CYP1A2; type: in vitro ADME; conditions: human cytochrome P450 enzyme
T2 sequence (P05177 1-516): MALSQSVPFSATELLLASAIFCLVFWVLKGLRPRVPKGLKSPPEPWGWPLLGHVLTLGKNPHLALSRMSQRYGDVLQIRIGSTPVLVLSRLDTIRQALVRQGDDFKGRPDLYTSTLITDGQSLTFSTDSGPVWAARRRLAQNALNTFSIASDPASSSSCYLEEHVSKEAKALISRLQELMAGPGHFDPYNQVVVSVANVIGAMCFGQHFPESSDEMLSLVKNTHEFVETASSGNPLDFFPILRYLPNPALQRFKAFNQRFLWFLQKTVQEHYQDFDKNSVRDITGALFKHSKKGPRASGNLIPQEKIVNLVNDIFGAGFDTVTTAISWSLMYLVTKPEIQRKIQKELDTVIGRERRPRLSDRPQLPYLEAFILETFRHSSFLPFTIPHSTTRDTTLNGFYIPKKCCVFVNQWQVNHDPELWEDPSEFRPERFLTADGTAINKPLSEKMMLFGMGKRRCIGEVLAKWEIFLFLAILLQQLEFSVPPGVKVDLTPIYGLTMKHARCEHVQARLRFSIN
From the text: as §1

## O=C(N[C@]12CC3C[C@@H](C[C@H](C3)O1)C2)N[C@H]1CC[C@H](Oc2ccc(C(=O)O)cc2)CC1 [Ig, trans-1-(2-oxaadamantan-1-yl)-3-[4-(4-carboxyphenoxy)cyclohexyl]urea]
sEH in AR42j cells
  inhibition at 100 µM: 58.3 ± 3.2%
[1]
  solubility: > 100 µM
CYP2C19
  inhibition at 1 µM: ≤ 6%
CYP1A2
  inhibition at 1 µM: ≤ 6%
